Experimental data reported in patent publication US20250122223A1, “HETEROCYCLIC COMPOUNDS AS UBIQUITIN SPECIFIC PROTEASE 7 INHIBITORS” (ALMAC DISCOVERY LIMITED, priority 2022, published 2025).
pIC50: −log10 of the molar value. Read-outs that look alike come from different tables or passages of the source.

Molecular target: USP7 (Homo sapiens (Human), UniProt Q93009)
Experiment: USP7 fluorescence polarisation (FP) assay with ubiquitin-Lys-TAMRA substrate
Assay type: biochemical
Conditions: biochemical inhibition; for pIC50: read-out: USP7 IC50 activity (Table 3a, classes); for IC50: unit not given in Table 3b (Table 1 and key of Table 3a use μM), read-out: USP7 IC50 activity (Table 3b)

Sequence of USP7 (Q93009 whole entry): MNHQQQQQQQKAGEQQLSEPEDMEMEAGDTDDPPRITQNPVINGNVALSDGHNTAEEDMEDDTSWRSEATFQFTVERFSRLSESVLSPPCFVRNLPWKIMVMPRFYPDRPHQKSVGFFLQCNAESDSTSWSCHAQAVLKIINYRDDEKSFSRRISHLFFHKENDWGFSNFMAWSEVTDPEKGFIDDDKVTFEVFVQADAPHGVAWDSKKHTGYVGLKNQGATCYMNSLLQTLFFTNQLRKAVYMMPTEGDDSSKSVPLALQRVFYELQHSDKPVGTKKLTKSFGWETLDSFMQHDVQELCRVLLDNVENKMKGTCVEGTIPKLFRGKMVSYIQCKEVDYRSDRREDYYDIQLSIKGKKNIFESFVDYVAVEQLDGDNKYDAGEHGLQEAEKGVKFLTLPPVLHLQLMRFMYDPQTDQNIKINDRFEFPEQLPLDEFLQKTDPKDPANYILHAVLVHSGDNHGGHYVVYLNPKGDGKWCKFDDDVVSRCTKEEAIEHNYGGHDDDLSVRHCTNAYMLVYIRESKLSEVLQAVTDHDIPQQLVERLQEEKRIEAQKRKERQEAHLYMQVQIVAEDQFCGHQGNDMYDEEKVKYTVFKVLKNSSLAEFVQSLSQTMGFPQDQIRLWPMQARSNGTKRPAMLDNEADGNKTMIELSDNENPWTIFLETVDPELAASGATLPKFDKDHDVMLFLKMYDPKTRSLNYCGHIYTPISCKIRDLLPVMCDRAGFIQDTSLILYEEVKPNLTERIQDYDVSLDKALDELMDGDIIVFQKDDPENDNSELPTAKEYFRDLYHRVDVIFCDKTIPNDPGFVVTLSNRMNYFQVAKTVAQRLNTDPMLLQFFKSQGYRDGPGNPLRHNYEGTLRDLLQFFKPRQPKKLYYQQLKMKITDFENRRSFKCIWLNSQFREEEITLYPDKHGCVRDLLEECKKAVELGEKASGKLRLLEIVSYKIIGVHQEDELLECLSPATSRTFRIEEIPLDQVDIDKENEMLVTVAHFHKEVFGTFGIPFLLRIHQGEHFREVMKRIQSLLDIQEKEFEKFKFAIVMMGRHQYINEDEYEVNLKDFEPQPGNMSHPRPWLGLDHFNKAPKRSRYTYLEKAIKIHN

Structure (SMILES)	pIC50	IC50 [µM]
O=C(c1ccc(Cl)cc1)N1CCC(O)(Cn2cnc3c(cc(Cl)n3-c3ccc(C4COC5CCCCC5N4)cc3)c2=O)CC1 (stereo not drawn) [Example 53, 6-Chloro-3-((1-(4-chlorobenzoyl)-4-hydroxypiperidin-4-yl)methyl)-7-(4-(octahydro-2H-benzo[b][1,4]oxazin-3-yl)phenyl)-3,7-dihydro-4H-pyrrolo[2,3-d]pyrimidin-4-one]	5.70 to 6.60	0.264
Cc1cc(-n2c(Cl)cc3c(=O)n(CC4(O)CCN(C(=O)c5ccc(C(F)(F)F)cc5)CC4)cnc32)ccc1[C@H]1CO[C@H](C)CN1 [Example 56, 6-Chloro-3-((4-hydroxy-1-(4-(trifluoromethyl)benzol)piperidin-4-yl)methyl)-7-(3-methyl-4-((3S,6R)-6-methylmorpholin-3-yl)phenyl)-3,7-dihydro-4H-pyrrolo[2,3-d]pyrimidin-4-one]	6.60 to 7.00	0.113
Cc1ccc(C(=O)N2CCC(O)(Cn3cnc4c(cc(Cl)n4-c4ccc([C@H]5CO[C@H](C)CN5)c(C)c4)c3=O)CC2)c(C)c1 [Example 58, 6-Chloro-3-((1-(2,4-dimethylbenzoyl)-4-hydroxypiperidin-4-yl)methyl)-7-(3-methyl-4-((3S,6R)-6-methylmorpholin-3-yl)phenyl)-3,7-dihydro-4H-pyrrolo[2,3-d]pyrimidin-4-one]	5.70 to 6.60	0.414
Cc1ccc(C(=O)N2CCC(O)(Cn3cnc4c(cc(Cl)n4-c4ccc([C@@H]5CO[C@@H](C)CN5)cc4)c3=O)CC2)c(C)c1 [Example 59, 6-Chloro-3-((1-(2,4-dimethylbenzoyl)-4-hydroxypiperidin-4-yl)methyl)-7-(4-((3R,6S)-6-methylmorpholin-3-yl)phenyl)-3,7-dihydro-4H-pyrrolo[2,3-d]pyrimidin-4-one]	5.70 to 6.60	0.545
O=C(c1ccc(Cl)cc1)N1CCC(O)(Cn2cnc3c(cc(Cl)n3-c3ccc(C4COC5CC5N4)cc3)c2=O)CC1 (stereo not drawn) [Example 60, 7-(4-(2-Oxa-5-azabicyclo[4.1.0]heptan-4-yl)phenyl)-6-chloro-3-((1-(4-chlorobenzoyl)-4-hydroxypiperidin-4-yl)methyl)-3,7-dihydro-4H-pyrrolo[2,3-d]pyrimidin-4-one]	5.70 to 6.60	0.313
C[C@H]1CN[C@H](c2ccc(-n3c(Cl)cc4c(=O)n(CC5(O)CCN(C(=O)/C=C/c6ccccc6)CC5)cnc43)cc2)CO1 [Example 63, 6-Chloro-3-((1-cinnamoyl-4-hydroxypiperidin-4-yl)methyl)-7-(4-((3R,6S)-6-methylmorpholin-3-yl)phenyl)-3,7-dihydro-4H-pyrrolo[2,3-d]pyrimidin-4-one]	6.60 to 7.00	0.221
C[C@H]1CN[C@H](c2ccc(-n3c(Cl)cc4c(=O)n(CC5(O)CCN(C(=O)c6ccc(C(F)(F)F)cc6)CC5)cnc43)cc2)CO1 [Example 65, 6-Chloro-3-((4-hydroxy-1-(4-(trifluoromethyl)benzoyl)Piperidin-4-yl)methyl)-7-(4-((3R,6S)-6-methylmorpholin-3-yl)phenyl)-3,7-dihydro-4H-pyrrolo[2,3-d]pyrimidin-4-one]	6.60 to 7.00	0.156
CC1(C(=O)N2CCC(O)(Cn3cnc4c(cc(Cl)n4-c4ccc(C5COCCN5)c(F)c4)c3=O)CC2)CC1 (stereo not drawn) [Example 72, 6-Chloro-7-(3-fluoro-4-(morpholin-3-yl)phenyl)-3-((4-hydroxy-1-(1-methylcyclopropane-1-carbonyl)piperidin-4-yl)methyl)-3,7-dihydro-4H-pyrrolo[2,3-d]pyrimidin-4-one]	6.60 to 7.00	0.211
CN1CCOCC1c1ccc(-n2c(Cl)cc3c(=O)n(CC4(O)CCN(C(=O)C5(C)CC5)CC4)cnc32)cc1 (stereo not drawn) [Example 75, 6-Chloro-3-((4-hydroxy-1-(1-methylcyclopropane-1-carbonyl)piperidin-4-yl)methyl)-7-(4-(4-methylmorpholin-3-yl)phenyl)-3,7-dihydro-4H-pyrrolo[2,3-d]pyrimidin-4-one]	5.70 to 6.60	2.09
CC1(C(=O)N2CCC(O)(Cn3cnc4c(cc(Cl)n4-c4ccc(C5CNCCO5)cc4)c3=O)CC2)CC1 (stereo not drawn) [Example 88, 6-Chloro-3-((4-hydroxy-1-(1-methylcyclopropane-1-carbonyl)piperidin-4-yl)methyl)-7-(4-(morpholin-2-yl)phenyl)-3,7-dihydro-4H-pyrrolo[2,3-d]pyrimidin-4-one]	6.60 to 7.00	0.158
Cc1cc(Cl)ccc1C(=O)N1CCC(O)(Cn2cnc3c(cc(Cl)n3-c3ccc([C@H]4CO[C@H](C)CN4)c(C)c3)c2=O)CC1 [Example 89, 6-Chloro-3-((1-(4-chloro-2-methylbenzoyl)-4-hydroxypiperidin-4-yl)methyl)-7-(3-methyl-4-((3S,6R)-6-methylmorpholin-3-yl)phenyl)-3,7-dihydro-4H-pyrrolo[2,3-d]pyrimidin-4-one]	6.60 to 7.00	0.204
Cc1cc(Cl)ccc1C(=O)N1CCC(O)(Cn2cnc3c(cc(Cl)n3-c3ccc([C@@H]4CO[C@@H](C)CN4)cc3)c2=O)CC1 [Example 90, 6-Chloro-3-((1-(4-chloro-2-methylbenzoyl)-4-hydroxypiperidin-4-yl)methyl)-7-(4-((3R,6S)-6-methylmorpholin-3-yl)phenyl)-3,7-dihydro-4H-pyrrolo[2,3-d]pyrimidin-4-one]	5.70 to 6.60	0.293
C[C@H]1CN[C@H](c2ccc(-n3c(Cl)cc4c(=O)n(CC5(O)CCN(C(=O)c6ccc(C(F)F)cc6)CC5)cnc43)cc2)CO1 [Example 91, 6-Chloro-3-((1-(4-(difluoromethyl)benzoyl)-4-hydroxypiperidin-4-yl)methyl)-7-(4-((3R,6S)-6-methylmorpholin-3-yl)phenyl)-3,7-dihydro-4H-pyrrolo[2,3-d]pyrimidin-4-one]	6.60 to 7.00	0.167

More lines, now with the values ahead:

pIC50	IC50 [µM]	Structure (SMILES)
6.60 to 7.00	0.162	CC[C@H]1CN[C@H](c2ccc(-n3c(Cl)cc4c(=O)n(CC5(O)CCN(C(=O)c6ccc(Cl)cc6)CC5)cnc43)cc2)CO1 [Example 46, 6-Chloro-3-((1-(4-chlorobenzoyl)-4-hydroxypiperidin-4-yl)methyl)-7-(4-((3R,6S)-6-ethylmorpholin-3-yl)phenyl)-3,7-dihydro-4H-pyrrolo[2,3-d]pyrimidin-4-one]
> 7.00	0.091	Cc1cc(-n2c(Cl)cc3c(=O)n(CC4(O)CCN(C(=O)c5ccc(F)cc5)CC4)cnc32)ccc1[C@H]1CO[C@H](C)CN1 [Example 47, 6-Chloro-3-((1-(4-fluorobenzoyl)-4-hydroxypiperidin-4-yl)methyl)-7-(3-methyl-4-((3S,6R)-6-methylmorpholin-3-yl)phenyl)-3,7-dihydro-4H-pyrrolo[2,3-d]pyrimidin-4-one]
6.60 to 7.00	0.223	O=C(N1CCC(O)(Cn2cnc3c(cc(Cl)n3-c3ccc([C@@H]4NC[C@@H]5CC[C@H]4O5)cc3)c2=O)CC1)C1(C2CC2)CC1 [Example 49, 7-(4-((1R,2S,5S)-8-Oxa-3-azabicyclo[3.2.1]octan-2-yl)phenyl)-3-((1-([1,1′-bi(cyclopropane)]-1-carbonyl)-4-hydroxypiperidin-4-yl)methyl)-6-chloro-3,7-dihydro-4H-pyrrolo[2,3-d]pyrimidin-4-one]
6.60 to 7.00	0.164	Cc1cc(-n2c(Cl)cc3c(=O)n(CC4(O)CCN(C(=O)c5ccc(Cl)cc5F)CC4)cnc32)ccc1[C@H]1CO[C@H](C)CN1 [Example 50, 6-Chloro-3-((1-(4-chloro-2-fluorobenzoyl)-4-hydroxypiperidin-4-yl)methyl)-7-(3-methyl-4-((3S,6R)-6-methylmorpholin-3-yl)phenyl)-3,7-dihydro-4H-pyrrolo[2,3-d]pyrimidin-4-one]
> 7.00	0.258	Cc1cc(-n2c(Cl)cc3c(=O)n(CC4(O)CCN(C(=O)c5cccc(Cl)c5)CC4)cnc32)ccc1[C@H]1CO[C@H](C)CN1 [Example 51, 6-Chloro-3-((1-(3-chlorobenzoyl)-4-hydroxypiperidin-4-yl)methyl)-7-(3-methyl-4-((3S,6R)-6-methylmorpholin-3-yl)phenyl)-3,7-dihydro-4H-pyrrolo[2,3-d]pyrimidin-4-one]
6.60 to 7.00	0.179	Cc1cc(-n2c(Cl)cc3c(=O)n(CC4(O)CCN(C(=O)c5ccccc5Cl)CC4)cnc32)ccc1[C@H]1CO[C@H](C)CN1 [Example 52, 6-Chloro-3-((1-(2-chlorobenzoyl)-4-hydroxypiperidin-4-yl)methyl)-7-(3-methyl-4-((3S,6R)-6-methylmorpholin-3-yl)phenyl)-3,7-dihydro-4H-pyrrolo[2,3-d]pyrimidin-4-one]
6.60 to 7.00	0.151	O=C(c1ccc(Cl)cc1)N1CCC(O)(Cn2cnc3c(cc(Cl)n3-c3ccc(C4COC5CCCC5N4)cc3)c2=O)CC1 (stereo not drawn) [Example 54, 6-Chloro-3-((1-(4-chlorobenzoyl)-4-hydroxypiperidin-4-yl)methyl)-7-(4-(octahydrocyclopenta[b][1,4]oxazin-3-yl)phenyl)-3,7-dihydro-4H-pyrrolo[2,3-d]pyrimidin-4-one]
6.60 to 7.00		Cc1ccc(C(=O)N2CCC(O)(Cn3cnc4c(cc(Cl)n4-c4ccc([C@H]5CO[C@H](C)CN5)c(C)c4)c3=O)CC2)cc1 [Example 55]
> 7.00	0.084	Cc1ccc(C(=O)N2CCC(O)(Cn3cnc4c(cc(Cl)n4-c4ccc([C@H]5CO[C@H](C)CN5)c(C)c4)c3=O)CC2)c(Cl)c1 [Example 57, 6-Chloro-3-((1-(2-chloro-4-methylbenzoyl)-4-hydroxypiperidin-4-yl)methyl)-7-(3-methyl-4-((3S,6R)-6-methylmorpholin-3-yl)phenyl)-3,7-dihydro-4H-pyrrolo[2,3-d]pyrimidin-4-one]
> 7.00	0.045	CC1(C(=O)N2CCC(O)(Cn3cnc4c(cc(Cl)n4-c4ccc([C@@H]5COCCN5)cc4)c3=O)CC2)CC1C(F)(F)F (stereo partly drawn) [Example 84, 6-Chloro-3-((4-hydroxy-1-(1-methyl-2-(trifluoromethyl)cyclopropane-1-carbonyl)piperidin-4-yl)methyl)-7-(4-((R)-morpholin-3-yl)phenyl)-3,7-dihydro-4H-pyrrolo[2,3-d]pyrimidin-4-one]
